Data: PubChem BioAssay AID1963848 (Molecular Pharmacology Branch, DTP, NCI, 2024)

Tested on: 379773-124-R-J2-PDC spheroid viability
Assay: Anticancer human tumor 379773-124-R-J2-PDC patient-derived endometrial carcinoma cell line growth inhibition [POLQ]
Conditions: spheroids with HUVEC and MSC; for IC50: curve of first compound; for viability, T/C: stronger effect = lower value
Description: Multicellular complex tumor spheroid response to Polymerase (POL) inhibitors (novobiocin, ART-558, RP6685) in combination with a variety of drugs and investigational agents in selected tumor cell lines
The POL inhibitors (novobiocin, ART-558, and RP6685) were evaluated both individually and in combination with standard of care and investigational anticancer small molecules within a complex spheroid model of solid tumors. . Complex spheroids include a stromal component modeled by human endothelial cells (HUVEC) and fibroblasts modeled by human mesenchymal stem cells (MSCs). The concentration ranges selected for each drug and investigational agent were based upon clinically achievable concentrations if the clinical Cmax of the agent was known.
Compounds. The drugs and investigational agents: novobiocin (NSC847541), ART-558 (NSC835418), RP-6685 (NSC848927), peposertib (NSC802822), ceralasertib (NSC780249), elimusertib (NSC800525), camonsertib (NSC841442), AZD-1390 (NSC803789), olaparib (NSC753686), talazoparib (NSC767125), rucaparib (NSC756644), sotorasib (NSC818433), MRTX-1133 (NSC836407), SN-38 (NSC673596), topotecan (NSC609699), epotoside (NSC141540), doxorubicin (NSC123127), gemcitabine (NSC613327), 5-fluorouracil (NSC19893), paclitaxel (NSC125973), vemurafenib (NSC761431), MSA-2 (NSC828583), SN-011 (NSC837082), adavosertib (NSC754352), prexasertib (NSC758257), carboplatin (NSC241240) and oxaliplatin (NSC266046), were obtained from the National Cancer Institute (NCI) Developmental Therapeutics Program Chemical Repository (21). The FDA-approved anticancer drug set is available from the Developmental Therapeutics Program at https://dtp.cancer.gov/organization/dscb/obtaining/. […] The stock solutions were prepared in dimethyl sulfoxide (DMSO, Sigma-Aldrich, St. Louis, MO, cat. D2650), except for the platinum compounds which were prepared in saline (Quality Biological, Gaithersburg, MD, cat. 114-055-101), at 800-fold the tested concentration and stored at -70 degrees C prior to their use. All drugs and investigational agents were tested over a range starting from a high concentration at or near the clinical Cmax and decreasing in half-log increments. If the clinical Cmax for an agent had not been determined, the highest concentration tested was 10 microM, except for SN-38, which was tested at a high concentration of 1 microM.
Cell Culture. All cells were maintained in an incubator at 37 degrees C and 5% CO2 with 95% humidity. The PDC lines were cultured according to standard operating procedures established by the NCI PDMR (https://pdmr.cancer.gov). Table 3 of the manuscript, lists the cell lines along with the number of the three cell types plated to form the mct-spheroids and media for tumor cell growth. After thawing, all PDC lines, except 997537-175-T-J1-PDC and 415267-285-R-J2-PDC, were cultured in Matrigel-coated flasks prepared with a working solution of 1X Ham's F-12 nutrient mix, without supplementation (Thermo Fisher Scientific, cat. 11765054), 100 U/mL penicillin-streptomycin (Thermo Fisher Scientific, cat. 15140122), and 2.5% Matrigel (Corning Inc., Corning, NY, cat. 354248) for the first three passages. The two PDC lines 997537-175-T-J1-PDC and 415267-285-R-J2-PDC were cultured on uncoated flasks. The 857933-349-R-J2-PDC line was cultured in 6C/Colon 1B media containing advanced DMEM/F-12 (Thermo Fisher Scientific, cat. 12634028), 10 mM HEPES (Thermo Fisher Scientific, cat. 15630080), 1X GlutaMAX supplement (Thermo Fisher Scientific, cat. 35050061), 0.1 mg/mL primocin (InvivoGen, San Diego, CA, cat. ant-pm-2), 10% defined fetal bovine serum, heat inactivated (HyClone Laboratories Inc., Logan, UT, cat. SH30070.03HI), 50% L-WRN conditioned media (ATCC, cat. CRL-3276), 1.25 mM N-Acetyl-L-cysteine (Sigma-Aldrich, cat. A9165), 10 mM nicotinamide (Sigma-Aldrich, cat. N0636), 1X B-27 supplement (Thermo Fisher Scientific, cat. 17504044), 1X N-2 supplement (Thermo Fisher Scientific, cat. […]

[1] = second compound 0.0316 µM, first compound 0.0316 µM
[2] = second compound 0.0316 µM, first compound 0.1 µM
[3] = second compound 0.0316 µM, first compound 0.316 µM
[4] = second compound 0.0316 µM, first compound 1 µM
[5] = second compound 0.0316 µM, first compound 3.16 µM
[6] = second compound 0.0316 µM, first compound 10 µM
[7] = second compound 0.1 µM, first compound 0.0316 µM
[8] = second compound 0.1 µM, first compound 0.1 µM
[9] = second compound 0.1 µM, first compound 0.316 µM
[10] = second compound 0.1 µM, first compound 1 µM
[11] = second compound 0.1 µM, first compound 3.16 µM
[12] = second compound 0.1 µM, first compound 10 µM
[13] = second compound 0.316 µM, first compound 0.0316 µM
[14] = second compound 0.316 µM, first compound 0.1 µM
[15] = second compound 0.316 µM, first compound 0.316 µM
[16] = second compound 0.316 µM, first compound 1 µM
[17] = second compound 0.316 µM, first compound 3.16 µM
[18] = second compound 0.316 µM, first compound 10 µM
[19] = second compound 1 µM, first compound 0.0316 µM
[20] = second compound 1 µM, first compound 0.1 µM
[21] = second compound 1 µM, first compound 0.316 µM
[22] = second compound 1 µM, first compound 1 µM
[23] = second compound 1 µM, first compound 3.16 µM
[24] = second compound 1 µM, first compound 10 µM
[25] = second compound 3.16 µM, first compound 0.0316 µM
[26] = second compound 3.16 µM, first compound 0.1 µM
[27] = second compound 3.16 µM, first compound 0.316 µM
[28] = second compound 3.16 µM, first compound 1 µM
[29] = second compound 3.16 µM, first compound 3.16 µM
[30] = second compound 3.16 µM, first compound 10 µM
[31] = second compound 10 µM, first compound 0.0316 µM
[32] = second compound 10 µM, first compound 0.1 µM
[33] = second compound 10 µM, first compound 0.316 µM
[34] = second compound 10 µM, first compound 1 µM
[35] = second compound 10 µM, first compound 3.16 µM
[36] = second compound 10 µM, first compound 10 µM
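Further: spheroids exposed to drugs for seven days before readout.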
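Wherever viability, T/C is given: percent viability relative to DMSO vehicle control taken as 100%.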

With `CNCc1ccc(-c2[nH]c3cc(F)cc4c3c2CCNC4=O)cc1` + Cc1cccc(N(C)C(=O)C2C(O)CCN2c2nc(C)cc(C(F)(F)F)c2C#N)c1 the IC50 (second compound 0.0316 µM) was greater than 10 µM, the IC50 (second compound 0.1 µM) was greater than 10 µM and the IC50 (second compound 0.316 µM) was greater than 10 µM. It also gave an IC50 (second compound 1 µM) greater than 10 µM, an IC50 (second compound 3.16 µM) greater than 10 µM and an IC50 (second compound 10 µM) greater than 10 µM. It also gave a viability, T/C [1] of 89.5%, a viability, T/C [2] of 74.2% and a viability, T/C [3] of 88.5%. It also gave a viability, T/C [4] of 83.2%, a viability, T/C [5] of 72.7% and a viability, T/C [6] of 58.3%. It also gave a viability, T/C [7] of 90.4%, a viability, T/C [8] of 85.8% and a viability, T/C [9] of 75.2%. For the same compound, the viability, T/C [10] was 79.5%, the viability, T/C [11] was 80.4% and the viability, T/C [12] was 66.9%. For the same compound, the viability, T/C [13] was 93.3%, the viability, T/C [14] was 77.5% and the viability, T/C [15] was 83.1%. The viability, T/C [16] was 82.9%, the viability, T/C [17] was 75.8% and the viability, T/C [18] was 57.6%. For the same compound, the viability, T/C [19] was 78.2%, the viability, T/C [20] was 79.7% and the viability, T/C [21] was 87.1%. For the same compound, the viability, T/C [22] was 73.5%, the viability, T/C [23] was 73.8% and the viability, T/C [24] was 60.3%. It also gave a viability, T/C [25] of 86.5%, a viability, T/C [26] of 73.6% and a viability, T/C [27] of 79.8%. It also gave a viability, T/C [28] of 83.1%, a viability, T/C [29] of 82% and a viability, T/C [30] of 54.8%. The viability, T/C [31] was 74.8%, the viability, T/C [32] was 70.3% and the viability, T/C [33] was 72.7%. It also gave a viability, T/C [34] of 69.6%, a viability, T/C [35] of 77.3% and a viability, T/C [36] of 61.1%.

With `O=C(c1cc(Cc2n[nH]c(=O)c3ccccc23)ccc1F)N1CCN(C(=O)C2CC2)CC1` + Cc1cccc(N(C)C(=O)C2C(O)CCN2c2nc(C)cc(C(F)(F)F)c2C#N)c1 the IC50 (second compound 0.0316 µM) was 6.37 µM, the IC50 (second compound 0.1 µM) was 7.6 µM and the IC50 (second compound 0.316 µM) was 8.22 µM. For the same compound, the IC50 (second compound 1 µM) was 8.16 µM, the IC50 (second compound 3.16 µM) was 6.72 µM and the IC50 (second compound 10 µM) was 6.14 µM. The viability, T/C [1] was 79.5%, the viability, T/C [2] was 89.5% and the viability, T/C [3] was 83.8%. For the same compound, the viability, T/C [4] was 80.9%, the viability, T/C [5] was 76.8% and the viability, T/C [6] was 32.7%. The viability, T/C [7] was 89.2%, the viability, T/C [8] was 89.6% and the viability, T/C [9] was 75.7%. The viability, T/C [10] was 75.8%, the viability, T/C [11] was 74.1% and the viability, T/C [12] was 42.5%. The viability, T/C [13] was 90.2%, the viability, T/C [14] was 80.2% and the viability, T/C [15] was 82.8%. For the same compound, the viability, T/C [16] was 85.3%, the viability, T/C [17] was 71.7% and the viability, T/C [18] was 45.1%. For the same compound, the viability, T/C [19] was 88.3%, the viability, T/C [20] was 87.9% and the viability, T/C [21] was 77.7%. For the same compound, the viability, T/C [22] was 83.5%, the viability, T/C [23] was 95.4% and the viability, T/C [24] was 42.2%. It also gave a viability, T/C [25] of 73.5%, a viability, T/C [26] of 78.4% and a viability, T/C [27] of 81.5%. The viability, T/C [28] was 76.7%, the viability, T/C [29] was 97.2% and the viability, T/C [30] was 33.4%. It also gave a viability, T/C [31] of 78.2%, a viability, T/C [32] of 78.9% and a viability, T/C [33] of 85.5%. For the same compound, the viability, T/C [34] was 72.4%, the viability, T/C [35] was 73.4% and the viability, T/C [36] was 33.7%.
